{
  "source": "patent US6761922B2",
  "about": "“Sweetener compositions containing aspartyl dipeptide ester compounds” (Ajinomoto Co., Inc., priority 1999, dated 2004)",
  "key": {"[1]": {"conditions": "value used as basis of calculation, vs sucrose; cited from earlier work"}, "[2]": {"assay": "Sensory evaluation in coffee against 4% sucrose coffee, after production and after storage", "assay_type": "in vivo", "conditions": "60 days at room temperature, judged from sweetness", "from_the_text": "And, the sweetener composition in the form of suspension was poured into the sealed container and stood still at room temperature for 60 days."}, "[3]": {"assay": "Measurement of the magnification of sweetness intensity in cola beverage (sensory evaluation against cola with sucrose)", "assay_type": "in vivo", "conditions": "control cola beverage containing 10% sucrose", "from_the_text": "(§1) The sweetness intensity of the solution of derivative 2 was 8.75% according to the following equation: (10.0−8.33)×0.25+8.33=8.75. Therefore, the magnification of sweetness of derivative 2 was 5600 (=8.75/0.00155) times that of sucrose. According to the same experiment, the magnification of sweetness intensity of derivative 1 was 22600 times that of sucrose. Further, the magnification of sweetness intensity of other derivatives (3 to 9) can be determined in the same manner. And the magnification of sweetness intensity in a cola beverage can be also determined by the same method compared to the control solution of cola beverage containing 10% sucrose.\nIncidentally, the composition of cola beverage is as follows.\nIncidentally, as for the concentration of the references, the sucrose concentrations of previous (a) to (e) were used."}, "[4]": {"assay": "Measurement of the magnification of sweetness intensity in aqueous solution (sensory evaluation against sucrose solutions)", "assay_type": "in vivo", "conditions": "for magnification of sweetness intensity, times that of sucrose: aqueous solution, PSE 10% concentration, 20 panelists", "description": "[Method for Determining the Magnification of Sweetness Intensity]\nAn aqueous solution was prepared by diluting derivative 2 to be PSE 10% concentration (15.5 mg/1000 ml=10/6500 g/100 ml), assuming that the intensity of sweetness of derivative 2 was 6500 times that of sucrose. Separately, aqueous sucrose solutions having sucrose concentrations of (a)6.94%, (b)8.33%, (c)10%, (d)12%, and (e)14.4% were prepared. The sensory evaluation was performed by determining which sucrose solution was closest to the solution of derivative 2 in the sweetness intensity. The result of calculation of the average of points of 20 panelists was 2.25 point.\nas §1"}, "[5]": {"assay": "Standing test of suspension at room temperature (precipitation)", "assay_type": "physicochemical", "conditions": "1.0 weight part in 70 weight parts of water, homogenized, 7 days"}, "Solubility": {"assay": "Solubility", "assay_type": "physicochemical", "conditions": "25° C."}, "[6]": {"assay": "Magnification of sweetness intensity stated or used for calculating the sweetness of compositions", "conditions": "for magnification of sweetness intensity of the derivative as stated for the formulation: value used as basis of calculation, vs sucrose"}, "[7]": {"assay": "Time required to dissolve completely in 500 ml of water with stirring", "assay_type": "physicochemical", "conditions": "0.0234 g of powder in 500 ml of water, 25° C., 200 rpm", "description": "When 50 g of the suspension of the derivative (derivative content 0.0234 g) were added to 500 ml of water (25° C.) with stirring (200 rpm), and the time required to dissolve completely was measured, it took 50 seconds. When 0.0234 g of the powder of the derivative 1, as a reference product, were added to 500 ml of water (25° C.) with stirring (200 rpm) in the same way, and the time required to dissolve completely was measured, it took not less than 3 minutes."}, "[8]": {"conditions": "cited from earlier work; for sweetness intensity, times that of sucrose by weight: reported in prior publications"}, "[9]": {"assay": "Rate of dissolving and dispersibility of granular products in water", "assay_type": "physicochemical", "conditions": "crude powder in hot water; insoluble coagulates formed", "description": "*1: As for the rate of dissolving, the distilled water was poured in the 500 ml beaker, 1 g of sample was added to the beaker with gentle mixing by magnetic stirring, and the time of dissolving was measured."}},
  "note": "Read-outs that look alike come from different tables or passages of the source. Where a SMILES comes first, the peptide text is derived from it.",
  "data": [
    {"smiles": "OC[C@H]1O[C@@H](O[C@H]2[C@H](O)[C@@H](O)C(O)O[C@@H]2CO)[C@H](O)[C@@H](O)[C@H]1O", "note": "(stereo partly shown) [lactose]", "values": [
      {"measurement": "magnification of sweetness intensity of filler used for calculation", "setting": "[1]", "result": 0.2}
    ]},
    {"smiles": "COC(=O)[C@H](Cc1ccccc1)NC(=O)[C@H](CC(=O)O)NCCCc1ccc(OC)c(O)c1", "note": "[Derivative 1, N-[N-[3-(3-hydroxy-4-methoxyphenyl)propyl]-L-α-aspartyl]-L-phenylalanine 1-methyl ester]", "values": [
      {"measurement": "stability of the derivative in the suspension", "setting": "[2]", "result": "not decomposed"},
      {"measurement": "Magnification of sweetness intensity relative to sucrose, in cola beverage", "setting": "[3]", "result": 22600},
      {"measurement": "magnification of sweetness intensity, times that of sucrose", "setting": "[4]", "result": 22600, "unit": "times"},
      {"measurement": "Magnification of sweetness intensity relative to sucrose, in aqueous solution", "setting": "[4]", "result": 22600},
      {"measurement": "precipitation on standing", "setting": "[5]", "result": "all suspended substances were precipitated"},
      {"measurement": "solubility against isomerised sugar \"Fujikraft\"", "setting": "Solubility", "result": 0.035, "unit": "g/100 ml"},
      {"measurement": "solubility in water", "setting": "Solubility", "result": 0.152, "unit": "g/100 ml"},
      {"measurement": "magnification of sweetness intensity at PSE 4%", "setting": "[6]; at PSE 4%, was calculated as", "result": 18500, "unit": "times"},
      {"measurement": "magnification of sweetness intensity of the derivative as stated for the formulation", "setting": "[6]", "result": 22600, "unit": "times"},
      {"measurement": "time required to dissolve completely", "setting": "[7]", "result": "not less than 3 minutes"}
    ]},
    {"smiles": "COC(=O)[C@H](Cc1ccccc1)NC(=O)[C@H](CC(=O)O)NCCC(C)(C)c1ccc(O)cc1", "note": "[Derivative 6, N-[N-[3-(4-hydroxyphenyl)-3-methylbutyl]-L-α-aspartyl]-L-phenylalanine 1-methyl ester]", "values": [
      {"measurement": "Magnification of sweetness intensity relative to sucrose, in cola beverage", "setting": "[3]", "result": 14000},
      {"measurement": "Magnification of sweetness intensity relative to sucrose, in aqueous solution", "setting": "[4]", "result": 14900},
      {"measurement": "magnification of sweetness intensity of the derivative as stated for the formulation", "setting": "[6]", "result": 14000, "unit": "times"}
    ]},
    {"smiles": "COC(=O)[C@H](Cc1ccccc1)NC(=O)[C@H](CC(=O)O)NCCC(C)(C)c1ccc(OC)c(O)c1", "note": "[Derivative 3, N-[N-[3-(3-hydroxy-4-methoxyphenyl)-3-methylbutyl]-L-α-aspartyl]-L-phenylalanine 1-methyl ester]", "values": [
      {"measurement": "Magnification of sweetness intensity relative to sucrose, in cola beverage", "setting": "[3]", "result": 37000},
      {"measurement": "Magnification of sweetness intensity relative to sucrose, in aqueous solution", "setting": "[4]", "result": 42400}
    ]},
    {"smiles": "COC(=O)[C@H](Cc1ccccc1)NC(=O)[C@H](CC(=O)O)NCCC(C)(C)c1ccc(OC)cc1", "note": "[Derivative 5, N-[N-[3-(4-methoxyphenyl)-3-methylbutyl]-L-α-aspartyl]-L-phenylalanine 1-methyl ester]", "values": [
      {"measurement": "Magnification of sweetness intensity relative to sucrose, in cola beverage", "setting": "[3]", "result": 8000},
      {"measurement": "Magnification of sweetness intensity relative to sucrose, in aqueous solution", "setting": "[4]", "result": 8400}
    ]},
    {"smiles": "COC(=O)[C@H](Cc1ccccc1)NC(=O)[C@H](CC(=O)O)NCCC(C)(C)c1ccc(O)c(C)c1", "note": "[Derivative 4, N-[N-[3-(3-methyl-4-hydroxyphenyl)-3-methylbutyl]-L-α-aspartyl]-L-phenyl alanine 1-methyl ester]", "values": [
      {"measurement": "Magnification of sweetness intensity relative to sucrose, in cola beverage", "setting": "[3]", "result": 29600},
      {"measurement": "Magnification of sweetness intensity relative to sucrose, in aqueous solution", "setting": "[4]", "result": 43500}
    ]},
    {"smiles": "COC(=O)[C@H](Cc1ccccc1)NC(=O)[C@H](CC(=O)O)NCCCc1ccc(OC)cc1O", "note": "[Derivative 7, N-[N-[3-(2-hydroxy-4-methoxyphenyl)propyl]-L-α-aspartyl]-L-phenylalanine 1-methyl ester]", "values": [
      {"measurement": "Magnification of sweetness intensity relative to sucrose, in cola beverage", "setting": "[3]", "result": 10600},
      {"measurement": "Magnification of sweetness intensity relative to sucrose, in aqueous solution", "setting": "[4]", "result": 11100}
    ]},
    {"smiles": "COC(=O)[C@H](Cc1ccccc1)NC(=O)[C@H](CC(=O)O)NCCCc1ccc(O)c(C)c1", "note": "[Derivative 8, N-[N-[3-(3-methyl-4-hydroxyphenyl)propyl]-L-α-aspartyl]-L-phenylalanine 1-methyl ester]", "values": [
      {"measurement": "Magnification of sweetness intensity relative to sucrose, in cola beverage", "setting": "[3]", "result": 15800},
      {"measurement": "Magnification of sweetness intensity relative to sucrose, in aqueous solution", "setting": "[4]", "result": 18200}
    ]},
    {"smiles": "COC(=O)[C@H](Cc1ccccc1)NC(=O)[C@H](CC(=O)O)NCCC(C)(C)C", "note": "[Neotame]", "values": [
      {"measurement": "sweetness intensity, times that of sucrose by weight", "setting": "[8]", "result": 10000, "unit": "times"}
    ]},
    {"smiles": "COC(=O)[C@H](Cc1ccccc1)NC(=O)[C@H](CC(=O)O)NCCCc1ccc(O)cc1O", "note": "[Derivative 9, N-[N-[3-(2,4-dihydroxyphenyl)propyl]-L-α-aspartyl]-L-phenylalanine 1-methyl ester]", "values": [
      {"measurement": "Magnification of sweetness intensity relative to sucrose, in cola beverage", "setting": "[3]", "result": 7500},
      {"measurement": "Magnification of sweetness intensity relative to sucrose, in aqueous solution", "setting": "[4]", "result": 8000}
    ]},
    {"smiles": "OC[C@@H](O)[C@@H](O[C@H]1O[C@H](CO)[C@@H](O)[C@H](O)[C@H]1O)[C@H](O)[C@@H](O)CO", "note": "[maltitole]", "values": [
      {"measurement": "magnification of sweetness intensity of filler used for calculation", "setting": "[1]", "result": 0.75}
    ]},
    {"smiles": "OC[C@@H](O)[C@@H](O)CO", "note": "[Erythritol]", "values": [
      {"measurement": "magnification of sweetness intensity at PSE 0.5%", "setting": "[6]; was calculated as", "result": 0.75, "unit": "times"}
    ]},
    {"smiles": "COC(=O)[C@H](Cc1ccccc1)NC(=O)[C@H](CC(=O)O)NCCCc1ccc(OC)cc1", "note": "[Derivative 2, N-[N-[3-(4-methoxyphenyl)propyl]-L-α-aspartyl]-L-phenylalanine 1-methyl ester]", "values": [
      {"measurement": "time without reaching complete dissolution", "setting": "[9]", "result": "> 5", "unit": "min"},
      {"measurement": "Magnification of sweetness intensity relative to sucrose, in cola beverage", "setting": "[3]", "result": 4900},
      {"measurement": "sweetness intensity of the solution (sucrose equivalent)", "setting": "[4]; 15.5 mg/1000 ml aqueous solution", "result": 8.75, "unit": "%"},
      {"measurement": "magnification of sweetness intensity, times that of sucrose", "setting": "[4]", "result": 5600, "unit": "times"},
      {"measurement": "Magnification of sweetness intensity relative to sucrose, in aqueous solution", "setting": "[4]", "result": 5500},
      {"measurement": "solubility in water", "setting": "Solubility", "result": 0.009, "unit": "g/100 ml"},
      {"measurement": "magnification of sweetness intensity of the derivative as stated for the formulation", "setting": "[6]", "result": 5000, "unit": "times"},
      {"measurement": "Magnification of sweetness intensity (vs. sucrose)", "setting": "[6]; value used for Example 9 suspension", "result": 5000}
    ]},
    {"smiles": "COC(=O)[C@H](Cc1ccccc1)NC(=O)[C@@H](N)CC(=O)O", "note": "[Aspartame] (H-Asp-Phe-OMe)", "values": [
      {"measurement": "Magnification of sweetness intensity (vs. sucrose)", "setting": "[8]; reference sweetener in Example 9", "result": 200},
      {"measurement": "sweetness intensity, times that of sucrose by weight", "setting": "[8]", "result": 200, "unit": "times"},
      {"measurement": "magnification of sweetness intensity at PSE 0.5%", "setting": "[6]; was calculated as", "result": 360, "unit": "times"}
    ]}
  ]
}
